Reference: US10344060B2 (priority 2013, dated 2019)
Entries after “also recorded” stand apart in the source; their conditions may differ. Where two headings read alike, the source gives them in different places.

Columns and labels:
[1] = rat plasma, 37° C., incubation time 0 hr (normalization point)
[2] = tested on: mouse saphenous nerve C-fibers
Nav1.3 = Nav1.3 (Rattus norvegicus, UniProt P08104); settings: read-out: TTX IC50; cited from earlier work
Nav1.4 = Nav1.4 (Rattus norvegicus, UniProt P15390); settings: read-out: TTX IC50; cited from earlier work
Nav1.6 = Nav1.6 (Rattus norvegicus, UniProt O88420); settings: read-out: TTX IC50; cited from earlier work
Nav1.7 [3] = target: Nav1.7 (Rattus norvegicus, UniProt O08562); settings: read-out: TTX IC50; cited from earlier work
Nav1.8 = Nav1.8 (Rattus norvegicus, UniProt Q62968); settings: read-out: TTX IC50; cited from earlier work
hNav1.7 [4] = target: T1, hNav1.7 (Homo sapiens, UniProt Q15858); experiment: cell-based; settings: ratio of IonWorks Quattro IC50 values, Nav1.4 over Nav1.7
hNav1.7 [5] = target: T1, hNav1.7; experiment: cell-based; assay type: cell-based; settings: Table 15; read-out: PX hNav1.7 Tonic IC50
hNav1.4 = hNav1.4 (Homo sapiens, UniProt P35499); experiment: cell-based; assay type: cell-based; settings: PX
hNav1.6 = hNav1.6 (Homo sapiens, UniProt Q9UQD0); experiment: cell-based; assay type: cell-based
hNav1.7 [6] = target: T1, hNav1.7; experiment: cell-based; assay type: cell-based
[7] = tested on: TTX-sensitive Nav channels in mouse DRG neuron
[8] = tested on: TTX-sensitive Nav channels in Sprague Dawley rat DRG neuron
[9] = human plasma, 37° C., incubation 0 hr (normalisation point)
[10] = cyno plasma, 37° C., incubation 0 hr (normalisation point)
[11] = mouse plasma, 37° C., incubation 0 hr (normalisation point)
[12] = 1 mg/kg s.c.
male CD-1 mice [13] = tested on: male CD-1 mice
male CD-1 mice [14] = settings: 5.0 mg/kg s.c.
male CD-1 mice [15] = settings: for terminal exposure (peptide plasma concentration): 2 h post peptide injection
male Sprague-Dawley rats [16] = settings: 5.0 mg/kg s.c.
male Sprague-Dawley rats [17] = settings: 5.0 mg/kg s.c.; 2 h post peptide injection
in vivo [18] = settings: male, CD-1, mouse, sc
in vivo [19] = settings: male, Sprague-Dawley, rat, sc, 5 mg/kg
[20] = tested on: TTX-sensitive sodium currents in adult rat DRG neurons; settings: cited from earlier work
TTX-resistant VGSCs = settings: cited from earlier work
NaV1.7 [21] = target: NaV1.7 (Homo sapiens, UniProt Q15858); settings: read-out: EC50, impairs fast inactivation; cited from earlier work
rats [22] = settings: rat, in vivo; cited from earlier work
rats [23] = settings: rat, in vivo, 0.1 mg/kg; cited from earlier work
[24] = 0.1, 0.3, and 1.0 mg/kg s.c., 1-hour pre-treatment

T1 sequence (Q15858 whole entry): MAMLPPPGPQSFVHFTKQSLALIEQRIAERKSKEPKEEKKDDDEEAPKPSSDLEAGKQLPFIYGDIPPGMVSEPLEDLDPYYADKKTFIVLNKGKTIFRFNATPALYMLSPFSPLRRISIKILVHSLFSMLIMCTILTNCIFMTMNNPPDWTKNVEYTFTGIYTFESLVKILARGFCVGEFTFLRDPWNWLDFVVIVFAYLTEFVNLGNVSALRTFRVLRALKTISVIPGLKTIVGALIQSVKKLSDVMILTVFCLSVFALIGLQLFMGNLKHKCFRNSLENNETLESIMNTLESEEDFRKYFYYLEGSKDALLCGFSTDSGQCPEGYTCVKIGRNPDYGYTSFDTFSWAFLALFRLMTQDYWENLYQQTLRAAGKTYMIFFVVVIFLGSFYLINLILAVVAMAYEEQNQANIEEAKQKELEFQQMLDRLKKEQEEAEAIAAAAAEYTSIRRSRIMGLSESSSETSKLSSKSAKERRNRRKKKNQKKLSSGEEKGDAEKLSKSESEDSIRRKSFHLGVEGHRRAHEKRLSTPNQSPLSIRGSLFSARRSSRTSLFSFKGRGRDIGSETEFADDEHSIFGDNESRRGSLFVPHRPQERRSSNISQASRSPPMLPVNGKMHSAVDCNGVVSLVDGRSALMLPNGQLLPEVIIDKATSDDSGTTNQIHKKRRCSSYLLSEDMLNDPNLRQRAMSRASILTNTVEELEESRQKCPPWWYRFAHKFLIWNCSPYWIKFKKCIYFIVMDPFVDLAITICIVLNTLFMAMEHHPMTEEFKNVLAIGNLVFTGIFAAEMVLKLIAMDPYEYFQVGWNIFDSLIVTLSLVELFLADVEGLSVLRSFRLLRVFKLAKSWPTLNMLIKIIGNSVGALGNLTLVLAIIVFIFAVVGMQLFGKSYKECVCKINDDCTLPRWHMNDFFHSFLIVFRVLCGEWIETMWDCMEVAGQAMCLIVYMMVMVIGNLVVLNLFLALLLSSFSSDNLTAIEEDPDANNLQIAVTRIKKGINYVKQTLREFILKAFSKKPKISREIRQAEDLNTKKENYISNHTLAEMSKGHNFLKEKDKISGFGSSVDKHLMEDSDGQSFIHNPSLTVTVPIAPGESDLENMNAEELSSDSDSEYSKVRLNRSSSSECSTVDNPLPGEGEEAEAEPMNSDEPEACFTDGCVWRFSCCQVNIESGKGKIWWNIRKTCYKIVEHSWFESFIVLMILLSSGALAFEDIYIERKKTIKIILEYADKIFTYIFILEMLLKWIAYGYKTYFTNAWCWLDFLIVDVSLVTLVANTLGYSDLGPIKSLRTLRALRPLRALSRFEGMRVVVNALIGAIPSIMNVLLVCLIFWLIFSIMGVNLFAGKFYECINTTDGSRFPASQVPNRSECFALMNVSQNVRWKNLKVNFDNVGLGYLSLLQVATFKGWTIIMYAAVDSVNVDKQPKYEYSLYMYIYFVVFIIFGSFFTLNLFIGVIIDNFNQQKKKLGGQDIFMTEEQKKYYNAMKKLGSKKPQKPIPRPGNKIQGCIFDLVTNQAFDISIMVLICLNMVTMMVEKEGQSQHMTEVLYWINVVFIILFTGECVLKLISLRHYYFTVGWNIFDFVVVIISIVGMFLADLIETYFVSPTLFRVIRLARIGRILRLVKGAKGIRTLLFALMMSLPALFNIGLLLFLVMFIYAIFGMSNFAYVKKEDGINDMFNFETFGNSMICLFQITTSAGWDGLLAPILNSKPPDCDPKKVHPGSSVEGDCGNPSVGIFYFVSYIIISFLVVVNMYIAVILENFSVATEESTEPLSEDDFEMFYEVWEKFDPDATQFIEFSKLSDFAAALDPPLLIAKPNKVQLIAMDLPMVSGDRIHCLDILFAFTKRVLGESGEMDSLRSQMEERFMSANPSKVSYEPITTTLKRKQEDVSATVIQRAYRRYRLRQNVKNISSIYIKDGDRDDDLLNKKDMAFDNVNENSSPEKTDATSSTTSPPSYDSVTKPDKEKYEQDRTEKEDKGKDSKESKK
Chain of hNav1.6 (Q9UQD0 whole entry): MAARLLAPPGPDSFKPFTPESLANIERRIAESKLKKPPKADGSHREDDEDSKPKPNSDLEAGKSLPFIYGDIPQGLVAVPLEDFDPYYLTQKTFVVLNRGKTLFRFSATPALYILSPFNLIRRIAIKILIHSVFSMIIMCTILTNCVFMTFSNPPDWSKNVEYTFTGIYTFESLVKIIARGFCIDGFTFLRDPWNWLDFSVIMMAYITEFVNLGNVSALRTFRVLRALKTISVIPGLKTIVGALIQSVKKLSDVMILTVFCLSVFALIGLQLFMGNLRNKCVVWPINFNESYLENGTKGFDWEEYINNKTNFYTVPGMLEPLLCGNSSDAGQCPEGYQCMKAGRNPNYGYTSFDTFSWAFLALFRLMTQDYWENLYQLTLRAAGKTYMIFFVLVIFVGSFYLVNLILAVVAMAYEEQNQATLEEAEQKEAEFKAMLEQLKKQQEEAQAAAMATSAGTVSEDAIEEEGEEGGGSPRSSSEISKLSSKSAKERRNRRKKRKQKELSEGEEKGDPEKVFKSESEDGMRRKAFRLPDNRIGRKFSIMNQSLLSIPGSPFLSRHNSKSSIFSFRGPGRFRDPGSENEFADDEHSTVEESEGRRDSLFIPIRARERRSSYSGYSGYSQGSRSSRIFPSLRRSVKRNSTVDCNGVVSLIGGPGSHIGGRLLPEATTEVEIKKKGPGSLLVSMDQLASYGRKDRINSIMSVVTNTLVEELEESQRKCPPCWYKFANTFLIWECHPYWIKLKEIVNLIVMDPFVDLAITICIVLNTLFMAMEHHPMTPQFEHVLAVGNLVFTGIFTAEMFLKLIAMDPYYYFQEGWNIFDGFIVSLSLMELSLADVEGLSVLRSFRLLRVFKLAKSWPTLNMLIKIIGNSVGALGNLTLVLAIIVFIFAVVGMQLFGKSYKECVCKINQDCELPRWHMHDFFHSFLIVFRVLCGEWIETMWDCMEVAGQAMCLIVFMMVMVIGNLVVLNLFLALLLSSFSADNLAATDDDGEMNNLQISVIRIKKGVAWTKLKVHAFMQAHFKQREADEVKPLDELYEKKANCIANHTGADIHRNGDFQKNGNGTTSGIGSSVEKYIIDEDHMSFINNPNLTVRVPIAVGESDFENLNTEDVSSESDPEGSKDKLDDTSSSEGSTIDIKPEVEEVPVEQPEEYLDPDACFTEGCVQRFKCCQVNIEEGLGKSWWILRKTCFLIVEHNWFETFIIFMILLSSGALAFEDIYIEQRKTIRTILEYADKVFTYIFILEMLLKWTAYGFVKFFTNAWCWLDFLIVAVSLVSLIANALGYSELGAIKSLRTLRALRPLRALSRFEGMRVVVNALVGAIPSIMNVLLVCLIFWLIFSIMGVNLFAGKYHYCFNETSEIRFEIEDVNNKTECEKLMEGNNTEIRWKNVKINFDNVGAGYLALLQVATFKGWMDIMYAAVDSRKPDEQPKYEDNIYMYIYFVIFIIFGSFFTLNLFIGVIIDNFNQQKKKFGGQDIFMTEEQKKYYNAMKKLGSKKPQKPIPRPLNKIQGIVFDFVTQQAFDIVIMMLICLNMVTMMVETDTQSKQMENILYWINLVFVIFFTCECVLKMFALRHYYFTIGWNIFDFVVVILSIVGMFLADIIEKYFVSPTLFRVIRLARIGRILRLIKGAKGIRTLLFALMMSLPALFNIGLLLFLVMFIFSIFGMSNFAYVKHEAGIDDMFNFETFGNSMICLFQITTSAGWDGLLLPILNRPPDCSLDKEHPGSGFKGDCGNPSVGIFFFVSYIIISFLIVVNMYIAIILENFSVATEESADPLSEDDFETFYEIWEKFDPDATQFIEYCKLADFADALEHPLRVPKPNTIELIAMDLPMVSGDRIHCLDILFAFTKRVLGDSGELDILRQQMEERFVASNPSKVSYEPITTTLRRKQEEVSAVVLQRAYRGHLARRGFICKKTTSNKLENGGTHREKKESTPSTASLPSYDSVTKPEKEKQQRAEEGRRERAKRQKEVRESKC
Chain of NaV1.7 (Q15858 whole entry): as the sequence (Q15858 whole entry) above

Molecule: CC[C@H](C)[C@H](NC(=O)[C@H](CO)NC(=O)[C@H](CCCCN)NC(=O)[C@H](CCCNC(=N)N)NC(=O)[C@@H]1CSSC[C@@H]2NC(=O)[C@H](C)NC(=O)[C@H](CCCNC(=N)N)NC(=O)[C@H](CCCCN)NC(=O)[C@H](CO)NC(=O)[C@H](CC(=O)O)NC(=O)[C@@H]3CSSC[C@H](NC(=O)[C@H](CCC(=O)O)NC(=O)[C@H](CC(C)C)NC(=O)CNC(=O)[C@H](CCC(=O)O)NC(=O)[C@H](CSSC[C@H](NC(=O)[C@@H](N)Cc4ccc(O)cc4)C(=O)N[C@@H](CCC(N)=O)C(=O)N[C@@H](CCCCN)C(=O)N[C@@H](Cc4c[nH]c5ccccc45)C(=O)N[C@@H](CCSC)C(=O)N[C@@H](Cc4c[nH]c5ccccc45)C(=O)N[C@@H]([C@@H](C)O)C(=O)N3)NC2=O)C(=O)N[C@@H](CCCCN)C(=O)N[C@@H](CC(C)C)C(=O)N[C@@H](Cc2c[nH]c3ccccc23)C(=O)N1)C(N)=O [SEQ ID NO: 138, [Glu20,Ser28]JzTx-V(1-29)]
- % Peptide Remaining [1]: 100%

Molecule: NC1=N[C@H](O)[C@H]2[C@H]3O[C@]4(O)O[C@@H]([C@@H](O)[C@@]2(N1)[C@@H]4O)[C@]3(O)CO [TTX, tetrodotoxin]
- action potential firing, in words [2]: completely blocked action potential firing
- IC50 (Nav1.3): 2 to 15 nM
- IC50 (Nav1.4): 5 nM
- IC50 (Nav1.6): 1 nM
- IC50 (Nav1.7 [3]): 4 nM
- IC50 (Nav1.8): > 50000 nM

Molecule: CC[C@H](C)[C@H](NC(=O)[C@H](CCCCN)NC(=O)[C@H](CCCNC(=N)N)NC(=O)[C@@H]1CSSC[C@@H]2NC(=O)[C@H](C)NC(=O)[C@H](CCCNC(=N)N)NC(=O)[C@H](CCCCN)NC(=O)[C@H](CO)NC(=O)[C@H](CC(=O)O)NC(=O)[C@@H]3CSSC[C@H](NC(=O)[C@H](CCC(=O)O)NC(=O)[C@H](CC(C)C)NC(=O)CNC(=O)[C@H](CCC(=O)O)NC(=O)[C@H](CSSC[C@H](NC(=O)[C@@H](N)Cc4ccc(O)cc4)C(=O)N[C@@H](CCC(N)=O)C(=O)N[C@@H](CCCCN)C(=O)N[C@@H](Cc4c[nH]c5ccccc45)C(=O)N[C@@H](CCSC)C(=O)N[C@@H](Cc4c[nH]c5ccccc45)C(=O)N[C@@H]([C@@H](C)O)C(=O)N3)NC2=O)C(=O)N[C@@H](CCCCN)C(=O)N[C@@H](CC(C)C)C(=O)N[C@@H](Cc2c[nH]c3ccccc23)C(=O)N1)C(=O)N[C@@H](Cc1c[nH]c2ccccc12)C(N)=O [compound 112]
- Nav1.4/Nav1.7 (hNav1.7 [4]): 178
- IC50 (hNav1.7 [5]): 1.59 nM
- selectivity against hNav1.4 relative to hNav1.7 (hNav1.4): > 1000 fold
- selectivity for Nav1.7 over Nav1.6 (hNav1.6; PatchXpress): 454 fold
- Nav1.6/Nav1.7 (hNav1.6; Table 15, ratio of PX tonic IC50 values): 454
- IC50 (hNav1.6; Table 15, read-out: PX hNav1.6 Tonic IC50): 720 nM
- block of hNav1.7 current (hNav1.7 [6]; 100 nM): approximately 80%
- block of hNav1.7 current, in words (hNav1.7 [6]; 100 nM): did not completely block Nav1.7 current; also recorded: only partial inhibition
- 1.x/1.7 (hNav1.7 [6]; partially inactivated, hNav1.7 / hNav1.7): 1
- 1.x/1.7 [7]: 1213
- loss in potency in mouse DRG neurons relative to the human clone of Nav1.7 ([7]; TTX-sensitive current): ~1000 fold
- 1.x/1.7 ([7]; partially inactivated, mTTX-S (fresh DRG) / hNav1.7): 917
- IC50 [8]: 261 nM
- 1.x/1.7 ([8]; partially inactivated, rTTX-S / hNav1.7): 1135
- % Peptide Remaining [9]: 100%
- % Peptide Remaining [10]: 100%
- % Peptide Remaining [11]: 100%
- plasma concentration over the in vitro hNav1.7 IC50 (PX) ([12]; CD-1 mice, for 3 h): 26 fold
- tolerability ([12]; mice): tolerated
- terminal plasma exposure (male CD-1 mice [13]; 0.1 mg/kg s.c., 45 min post-formalin injection, mean±SEM): 0.0278 ± 0.0105 µM
- terminal plasma exposure (male CD-1 mice [13]; 0.3 mg/kg s.c., 45 min post-formalin injection): 0.121 ± 0.0411 µM
- pain response relative to the vehicle, first phase (male CD-1 mice [13]; 1 mg/kg s.c., 1-hour pre-treatment): may have slightly increased the pain response
- terminal plasma exposure (male CD-1 mice [13]; 1.0 mg/kg s.c., 45 min post-formalin injection): 0.412 ± 0.0858 µM
- plasma concentration over the IC50 for blocking TTX-S current in mouse DRG neurons (WCPC) (male CD-1 mice [13]; 5.0 mg/kg s.c.): about 10 fold
- terminal plasma exposure (male CD-1 mice [13]; 5.0 mg/kg s.c., 45 min post formalin injection): 2.63 ± 0.777 µM
- terminal plasma exposure (male CD-1 mice [14]; 2 h post peptide injection): 1.75 ± 0.536 µM
- thermal latency compared to vehicle (PBS) (male CD-1 mice [14]; CFA thermal hyperalgesia, male CD-1 mice): no effect
- terminal exposure (peptide plasma concentration) (male CD-1 mice [15]; 0.1 mg/kg s.c.): 0.0248 ± 0.00668 µM
- terminal exposure (peptide plasma concentration) (male CD-1 mice [15]; 0.3 mg/kg s.c.): 0.121 ± 0.0296 µM
- terminal exposure (peptide plasma concentration) (male CD-1 mice [15]; 1.0 mg/kg s.c.): 0.419 ± 0.226 µM
- terminal exposure (peptide plasma concentration) (male CD-1 mice [15]; 5.0 mg/kg s.c.): 4.73 ± 0.584 µM
- total basic movement component of locomotor activity (male CD-1 mice [15]; [24]): No doses of peptide significantly decreased exploratory behavior
- total rearing component of locomotor activity (male CD-1 mice [15]; [24]): No doses of peptide significantly decreased exploratory behavior
- total basic movement, total fine movement, total rearing, or total time rearing (male CD-1 mice [15]; 0.1, 0.3, or 1.0 mg/kg s.c., 1-hour pre-treatment): no effect
- effect in the first or acute phase (0-5 min) (male Sprague-Dawley rats [16]; 1-hour pre-treatment, male Sprague-Dawley rats): no effect
- terminal plasma exposure (male Sprague-Dawley rats [16]; 45 min post-formalin injection): 1.18 ± 0.156 µM
- terminal exposure (peptide plasma concentration) (male Sprague-Dawley rats [17]): 0.994 ± 0.184 µM
- level at time molar at 2 h (in vivo [18]; 0.1 mg/kg): 24.8 ± 6.68 nM
- level at time molar at 2 h (in vivo [18]; 0.3 mg/kg): 121 ± 29.6 nM
- level at time molar at 2 h (in vivo [18]; 1 mg/kg): 419 ± 226 nM
- level at time molar at 2 h (in vivo [19]): 994 ± 184 nM

Molecule: Huwentoxin-IV [HWTX-IV]
- IC50 [20]: 30 nM
- effect on TTX-resistant VGSCs (TTX-resistant VGSCs): no effect

Molecule: OD1 [OD 1]
- EC50 (NaV1.7 [21]): 4.5 nM

Molecule: YCQKWMWTCDSERKCCEGMVCRLWCKKKLW [ProTx-II]
- efficacy in mechanical hyperalgesia study (rats [22]): not efficacious
- tolerability (rats [23]): lethal
